Test results from patent US12240862B2, “Inhibitors of peptidylarginine deiminases” (Gilead Sciences, Inc., priority 2020, dated 2025).

Biological target: T1, human PAD4 (Homo sapiens, UniProt Q9UM07)
T1 construct: human PAD4 (NM_012387), A2P663, was PCR amplified; His-SUMO (N, cleaved yes); made in house; host or cells: E. coli BL21(DE3)
Assay: In vitro PAD4 BAEE biochemical assay
Conditions: human PAD4, BAEE substrate; 5 nM PAD4, 2 mM calcium chloride, 3 mM BAEE; geometric mean of multiple experiments
Procedure, shortened: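 Ammonia generated from BAEE serves as the readout, measured by o-phthalaldehyde after EDTA termination. Final conditions: 5 nM human PAD4 (SUMO tag cleaved), 2 mM CaCl2, 3 mM BAEE, pH 7.6 MOPS buffer, 25 °C for 2 h following a 30-min compound preincubation.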

T1 sequence (Q9UM07 2-663): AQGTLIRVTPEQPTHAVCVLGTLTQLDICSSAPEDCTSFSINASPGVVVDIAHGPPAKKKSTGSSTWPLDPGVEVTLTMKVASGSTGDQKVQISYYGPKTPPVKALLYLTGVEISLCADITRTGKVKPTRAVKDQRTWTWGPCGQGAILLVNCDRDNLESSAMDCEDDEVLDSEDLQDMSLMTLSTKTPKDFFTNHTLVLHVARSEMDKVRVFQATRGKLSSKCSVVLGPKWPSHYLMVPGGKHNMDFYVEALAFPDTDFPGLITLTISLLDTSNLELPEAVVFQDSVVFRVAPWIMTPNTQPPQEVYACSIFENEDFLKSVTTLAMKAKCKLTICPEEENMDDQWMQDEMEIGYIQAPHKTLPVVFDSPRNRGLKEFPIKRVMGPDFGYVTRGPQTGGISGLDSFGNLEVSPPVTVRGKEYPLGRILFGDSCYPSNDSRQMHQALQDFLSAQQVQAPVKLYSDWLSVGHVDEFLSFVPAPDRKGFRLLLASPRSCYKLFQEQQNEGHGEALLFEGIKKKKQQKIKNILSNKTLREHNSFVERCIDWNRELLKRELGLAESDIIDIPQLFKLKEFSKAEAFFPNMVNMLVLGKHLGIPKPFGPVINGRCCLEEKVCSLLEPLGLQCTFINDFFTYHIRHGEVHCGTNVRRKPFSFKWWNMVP

| Compound | IC50 [nM] |
| --- | --- |
| CS(=O)(=O)N(c1ccc2cc(-c3nc4cc(C(=O)N5CC[C@@H](N)C5)ccn4c3C3CC3)n(CC3CC3)c2n1)C(F)F [Example 393, ~{N}-[2-[7-[(3~{R})-3-aminopyrrolidine-1-carbonyl]-3-cyclopropylimidazo[1,2-a]pyridin-2-yl]-1-(cyclopropylmethyl)pyrrolo [2,3-b]pyridin-6-yl]-~{N}-(difluoromethyl) methanesulfonamide] | 2010 |
| COc1cc(C(=O)N[C@H]2CCCCNC2)cc2nc(-c3cc4ccc(N(C(F)F)S(C)(=O)=O)nc4n3CC3CC3)c(C)n12 [Example 296, ~{N}-[(3~{S})-azepan-3-yl]-2-[1-(cyclopropylmethyl)-6-[difluoromethyl (methylsulfonyl)amino]pyrrolo[2,3-b]pyridin-2-yl]-5-methoxy-3-methylimidazo[1,2-a]pyridine-7-carboxamide] | 24600 |
| COc1cc(C(=O)N2[C@H]3CC[C@@H]2[C@H](N)C3)cc2nc(-c3cc4ccc([C@@H](C)NC(=O)N5CCO[C@@H](C)C5)nc4n3CC3CC3)c(C)n12 [Example 201, (2~{S})-~{N}-[(1~{R})-1-[2-[7-[(1~{R},2~{R},4~{S})-2-amino-7-azabicyclo[2.2.1]heptane-7-carbonyl]-5-methoxy-3-methylimidazo [1,2-a]pyridin-2-yl]-1-(cyclopropylmethyl)pyrrolo [2,3-b]pyridin-6-yl]ethyl]-2-methylmorpholine-4-carboxamide] | 17.4 |

Continued by falling IC50, values first:

| IC50 [nM] | Compound |
| --- | --- |
| 553 | COc1cc(C(=O)N2[C@H]3CC[C@@H]2[C@H](N)C3)cc2nc(-c3cc4ccc(Oc5ccccc5)nc4n3CC3CC3)c(C)n12 [Example 628, [(1~{R},2~{R},4~{S})-2-amino-7-azabicyclo [2.2.1]heptan-7-yl]-[2-[1-(cyclopropylmethyl)-6-phenoxypyrrolo[2,3-b]pyridin-2-yl]-5-methoxy-3-methylimidazo[1,2-a]pyridin-7-yl]methanone] |
| 114 | COc1cc(C(=O)N2[C@H]3CC[C@@H]2[C@H](N)C3)cc2nc(-c3cc4ccc([C@@H](C)NC(=O)c5c(F)cccc5F)nc4n3CC3CC3)c(C)n12 [Example 16, ~{N}-[(1~{R})-1-[2-[7-[(1~{R},2~{R},4~{S})-2-amino-7-azabicyclo [2.2.1]heptane-7-carbonyl]-5-methoxy-3-methylimidazo [1,2-a]pyridin-2-yl]-1-(cyclopropylmethyl)pyrrolo[2,3-b]pyridin-6-yl]ethyl]-2,6-difluorobenzamide] |
| 110 | COc1cc(C(=O)N2[C@H]3CC[C@@H]2[C@H](N)C3)cc2nc(-c3cc4ccc([C@@H](C)NC(=O)OC(C)C)nc4n3CC3CC3)c(C)n12 [Example 254, propan-2-yl~{N}-[(1~{R})-1-[2-[7-[(1~{R}, 2~{R},4~{S})-2-amino-7-azabicyclo[2.2.1]heptane-7-carbonyl]-5-methoxy-3-methylimidazo [1,2-a]pyridin-2-yl]-1-(cyclopropylmethyl)pyrrolo [2,3-b]pyridin-6-yl]ethyl] carbamate] |
| 27 | COc1cc(C(=O)N2[C@H]3CC[C@@H]2[C@H](N)C3)cc2nc(-c3cc4ccc([C@@H](C)NC(=O)C5(OC)CCC5)nc4n3CC3CC3)c(C)n12 [Example 41, ~{N}-[(1~{R})-1-[2-[7-[(1~{R},2~{R},4~{S})-2-amino-7-azabicyclo [2.2.1]heptane-7-carbonyl]-5-methoxy-3-methylimidazo [1,2-a]pyridin-2-yl]-1-(cyclopropylmethyl)pyrrolo[2,3-b]pyridin-6-yl]ethyl]-1-methoxycyclobutane-1-carboxamide] |
| 25.1 | COc1cc(C(=O)N2[C@H]3CC[C@@H]2[C@H](N)C3)cc2nc(-c3cc4ccc([C@@H](C)NC(=O)C5CC(O)(C(F)(F)F)C5)nc4n3CC3CC3)c(C)n12 (some centres unmarked) [Example 45, ~{N}-[(1~{R})-1-[2-[7-[(1~{R},2~{R},4~{S})-2-amino-7-azabicyclo[2.2.1]heptane-7-carbonyl]-5-methoxy-3-methylimidazo [1,2-a]pyridin-2-yl]-1-(cyclopropylmethyl)pyrrolo[2,3-b]pyridin-6-yl]ethyl]-3-hydroxy-3-(trifluoromethyl) cyclobutane-1-carboxamide] |
